Data from patent US5300512A, “Benzimidazole compounds” (G. D. Searle & Co., priority 1992, dated 1994).

What was measured:
5-HT3 = experiment: Bezold-Jarisch reflex: reduction of 5-HT-induced bradycardia in anesthetized mice; type: in vivo; conditions: i.p., 30 min before 5-HT 0.25 mg/kg i.v.; >50% reduction of bradycardia considered significant
Experimental: (§1) 5-HT4 agonist activity was determined in the in vitro rat tunica muscularis mucosae (TMM) assay. (Baxter et al., Naunyn Schmied Arch. Pharmacol, 1991, 343, 439). The 5-HT4 agonist or antagonist and/or 5-HT3 antagonist activity of the compounds of the invention can be determined by these assays described herein, without undue experimentation.
The compound to be evaluated was administered i.p. (mg/kg) to a group of 3 mice. […] This method has been described by Saxena, P. R. and Lawang, A., Arch. Int. Pharmacodyn., 277: 235-252, 1985.

5-HT3 receptor = target: T1, 5-HT3 receptor (Rattus norvegicus, UniProt P35563); experiment: [3H]-GR65630 radioligand binding to 5-HT3 receptor, rat brain cortex membranes
T1 construct: Brain cortices were obtained from male rats and a membrane fraction prepared by standard techniques; from tissue; host or cells: rat brain cortex, membrane fraction
T1 sequence (P35563 24-483): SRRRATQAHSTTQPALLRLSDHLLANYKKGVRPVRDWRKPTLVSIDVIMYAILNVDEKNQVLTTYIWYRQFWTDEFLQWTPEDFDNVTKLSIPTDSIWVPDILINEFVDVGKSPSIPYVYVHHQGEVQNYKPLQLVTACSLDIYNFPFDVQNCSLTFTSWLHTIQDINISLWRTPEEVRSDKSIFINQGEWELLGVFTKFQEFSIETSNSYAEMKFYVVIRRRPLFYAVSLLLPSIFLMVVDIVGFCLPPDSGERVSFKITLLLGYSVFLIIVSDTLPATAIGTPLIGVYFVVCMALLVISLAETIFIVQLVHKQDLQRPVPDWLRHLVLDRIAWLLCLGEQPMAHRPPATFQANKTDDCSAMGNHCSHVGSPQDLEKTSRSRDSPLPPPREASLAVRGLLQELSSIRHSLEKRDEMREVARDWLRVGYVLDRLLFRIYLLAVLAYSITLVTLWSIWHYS
Experimental: as §1
GR65630 binds to the 5-HT3 receptor. Brain cortices were obtained from male rats and a membrane fraction prepared by standard techniques. 0.04 mg of membrane prep was incubated with 0.2 nM […] for 60 minutes at 22° C. […] Membranes were filtered and washed 3 times and the filters were counted to determine [3H]-GR65630 specifically bound. (Kilpatrick G. J., Jones B. J. and Tyers M. B. Identification and distribution of 5-HT3 receptors in rat brain using radioligand binding. Nature, 330: 746-748, 1987).

5-HT4 receptor = target: T2, 5-HT4 receptor (Rattus norvegicus, UniProt Q62758); experiment: In vitro functional assay for serotonin 5-HT4 agonism: rat TMM (relaxation of carbachol-contracted tunica muscularis mucosae); type: biochemical; conditions: rat esophagus, carbachol (3 μM) contracted, 37° C, tissues from 5 rats
T2 construct: The inner tunica muscularis mucosa was mounted under 0.2-0.3 g of tension in a tissue bath; from tissue; host or cells: rat intrathoracic esophagus, tunica muscularis mucosae
T2 sequence (Q62758 whole entry): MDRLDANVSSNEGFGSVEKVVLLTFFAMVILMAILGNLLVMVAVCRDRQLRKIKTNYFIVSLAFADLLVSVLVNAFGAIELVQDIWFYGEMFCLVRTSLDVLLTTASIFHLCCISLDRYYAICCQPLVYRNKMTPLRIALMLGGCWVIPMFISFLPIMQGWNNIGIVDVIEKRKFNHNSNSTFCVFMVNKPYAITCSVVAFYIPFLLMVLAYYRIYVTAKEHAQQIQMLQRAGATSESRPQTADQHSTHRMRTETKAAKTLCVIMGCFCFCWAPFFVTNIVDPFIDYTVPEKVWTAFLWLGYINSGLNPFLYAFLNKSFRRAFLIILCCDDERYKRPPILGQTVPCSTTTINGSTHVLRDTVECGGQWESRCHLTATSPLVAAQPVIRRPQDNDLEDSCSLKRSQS
Experimental: as §1
Agonist activity was determined utilizing relaxation of carbachol-contracted rat tunica muscularis mucosae. One 2 cm segment of intrathoracic esophagus proximal to the diaphragm was removed from male rats, weighing approximately 300 gm, and the outer muscle layers removed. The inner tunica muscularis mucosa was mounted under 0.2-0.3 g of tension in a tissue bath containing oxygenated Tyrode's solution at 37° C. […] Following a 30 min equilibrium period, tissues were isometrically contracted with carbachol (3 μM) to obtain a tonic contraction. A stable plateau was obtained within 20 min when test compound was added cumulatively to relax the muscle strip. EC50 values were obtained for each agonist in tissues from 5 rats.

Row | SMILES | Minimum Effective Dose (MED) (5-HT3) [mg/kg] | Hill Coefficient (5-HT3 receptor; [3H]-GR65630 bound (0.2 nM)) | further results
1 | CCN(CC)CCNC(=O)c1cc(Cl)c(N)cc1OC [metoclopramide] | 5 | – | –
2 | COc1ccc2[nH]cc(C3=CCNCC3)c2c1 [RU24969] | – | 1.0 | –
3 | Cc1[nH]cnc1CCC(=O)c1cn(C)c2ccccc12 [GR65630] | – | – | % Specific Binding (5-HT3 receptor; [3H]-GR65630, non-specific binding with 1 uM ICS 205-930): 70%
4 | CC(C)n1c(=O)n(C(=O)NCC23CCN(CC2)CC3)c2ccccc21 [Example 10, N-(1-azabicyclo[2.2.2]octan-4-ylmethyl)-2,3-dihydro-3-(1-methylethyl)-2-oxo-1H-benzimidazole-1-carboxamide] | 0.03 | – | IC50 (5-HT3 receptor; [3H]-GR65630 bound (0.2 nM)): 8.6 nM; Ki (5-HT3 receptor; [3H]-GR65630 bound (0.2 nM)): 4.3 nM; EC50 (5-HT4 receptor): 125 nM
5 | c1ccc2nc(N3CCNCC3)ccc2c1 [Quipazine] | – | 0.86 | –
6 | CN1[C@@H]2C[C@@H](OC(=O)[C@H](CO)c3ccccc3)C[C@H]1[C@@H]1O[C@@H]12 [scopolamine] | 2.5 | – | –
7 | COc1cc(N)c(Cl)cc1C(=O)NC1CN2CCC1CC2 (stereo not shown) [Zacopride] | – | 0.86 | –
8 | CN1C2CCC1CC(OC(=O)c1c[nH]c3ccccc13)C2 (stereo not shown) [ICS 205-930] | – | 1.0 | –
9 | CN1C2CCCC1CC(NC(=O)c1nn(C)c3ccccc13)C2 (stereo not shown) [BRL-43694] | 0.05 | – | –
10 | O=c1[nH]c2ccccc2n1CCCN1CCC(n2c(=O)[nH]c3cc(Cl)ccc32)CC1 [domperidone] | > 10 | – | –
